# Patent US20230015541A1, “16% Sodium Citrate Solution for Use as an Antimicrobial Catheter Lock Solution” (Becton, Dickinson and Company, priority 2021, published 2023)
# Legend:
# [1] = test system: yeast, C. albicans; test: Growth inhibition timeframe at various concentrations of sodium citrate; assay type: cell-based, Candida albicans; details: through 24 hours, pH 6.4-7.5
# Experimental: FIG. 5 is a table showing growth inhibition timeframe of the fungus Candida albicans exposed to various concentrations of sodium citrate.
# (§1) In vitro testing was conducted with various concentrations of sodium citrate on S. aureus (Gram-positive bacteria) (FIG. 3), P. aeruginosa (Gram-negative bacteria) (FIG. 4), and yeast, C. albicans (FIG. 5). Testing was conducted as set forth in ‘Methods for Dilution Antimicrobial Susceptibility Tests for Bacteria That Grow Aerobically,’ 11th Edition, Clinical and Laboratory Standards Institute (2018), ‘Methods for Determining Bactericidal Activity of Antimicrobial Agents' Approved Guideline.’ Vol. 12, No. 9, Clinical and Laboratory Standards Institute (1999), and ‘Development of In Vitro Susceptibility Testing Criteria and Quality Control Parameters; Approved Guideline-Second Edition,’ Vol. 21, No. 7, Clinical and Laboratory Standards Institute (2001). Briefly, trisodium citrate salt was compounded using purified water and the pH was adjusted, if necessary, with hydrochloric acid to provide a composition with a pH between 6.4 and 7.5. […] Due to this, it is expected that growth inhibition and possibly eradication can occur beyond 24 hours.
# [2] = test system: S. aureus (Gram-positive bacteria); test: as above; assay type: cell-based, Staphylococcus aureus; details: through 24 hours; for growth of S. aureus: pH 6.4-7.5
# Experimental: FIG. 3 is a table showing growth inhibition timeframe of Gram-positive Staphylococcus aureus exposed to various concentrations of sodium citrate.
# as §1
# [3] = test system: P. aeruginosa (Gram-negative bacteria); test: as above; assay type: cell-based, Pseudomonas aeruginosa; details: through 24 hours; for growth of P. aeruginosa: pH 6.4-7.5
# Experimental: FIG. 4 is a table showing growth inhibition timeframe of Gram-negative Pseudomonas aeruginosa exposed to various concentrations of sodium citrate.
# as §1
# Due to this, it is expected that growth inhibition and possibly eradication can occur beyond 24 hours.
# [4] = test system: whole human blood; test: Anticoagulation effect in vitro as activated clotting time (ACT), Sonoclot analyzer; assay type: cell-based; details: 4% (w/v), versus controls (no solution and saline)
# Experimental: The anticoagulation effect of a 4% sodium citrate lock solution was measured in vitro as activated clotting time (ACT) using whole human blood over 2 years. The anticoagulation effectiveness of 4% sodium citrate lock solution on whole blood was determined using the Sonoclot® Coagulation & Platelet Function Analyzer (Sienco Inc., Boulder Colo.), which can calculate the onset of clot formation by monitoring mechanical changes that occur in blood samples during hemostasis. The mechanism is a tubular probe that moves up and down within a blood sample. As the sample progresses through various stages of clotting, electronic circuitry (a transducer) detects increasing resistance. This produces a series of electronic signals that are processed by a microcomputer. The output is the total time of clot formation where the blood is more viscous than initially introduced.
# [5] = test system: Gram-positive bacteria; test: MIC determination of sodium citrate by broth microdilution; assay type: cell-based; details: 16% w/v sodium citrate, pH 6.4-7.5; concluded from MICs of FIGS. 2A and 2B
# Experimental: (§2) In vitro testing was conducted with sodium citrate on samples of various microorganisms to determine a minimum inhibitory concentration (MIC) of sodium citrate (at pH 6.4-7.5) for those microorganisms. […] Testing was performed as set forth in ‘Methods for Dilution Antimicrobial Susceptibility Tests for Bacteria That Grow Aerobically,’ 11th Edition, Clinical and Laboratory Standards Institute (2018), ‘Methods for Determining Bactericidal Activity of Antimicrobial Agents' Approved Guideline.’ Vol. 12, No. 9, Clinical and Laboratory Standards Institute (1999), and ‘Development of In Vitro Susceptibility Testing Criteria and Quality Control Parameters; Approved Guideline-Second Edition,’ Vol. 21, No. 7, Clinical and Laboratory Standards Institute (2001).
# (§3) For MIC determinations, sodium citrate was reconstituted and diluted to various working stock concentrations (8%, 10%, 12%, 14%, 16%, 20%, 24%, and 28% in deionized water and transferred into round-bottom 96-well microdilution plates. Three strains each of Gram-positive bacteria, Gram-negative bacteria, and yeast were obtained from the American Tissue Type Collection (ATCC) or the Centers for Disease Control Antibiotic Resistant (CDC AR) Isolate Bank. Cultures were grown on Trypticase Soy Agar (TSA, for bacteria) or Sabouraud Dextrose Agar (SDA, for yeast) and suspended in Mueller Hinton Broth to a final cell density of approximately 5×10^5 CFU/mL during exposure to sodium citrate. Following incubation at 35±2° C. for 24±2 h (bacteria) or 44±4 h (yeast), microdilution plates were visually examined for the presence or inhibition of growth.
# (§4) As will be appreciated, the MIC is shown, thus testing of higher concentrations was deemed unnecessary, because if, for example 4% sodium citrate is the MIC for a given microorganism, then 16% would be at least as effective. Three (3) replicates were run for each bacteria evaluated and four (4) replicates were run for each fungi evaluated, using two (2) different growth media for the fungi. […]
# [6] = test system: yeast; test: as above; assay type: cell-based; details: 16% w/v sodium citrate, pH 6.4-7.5; concluded from MICs of FIGS. 2A and 2B
# Experimental: as §2, §3, §4
# [7] = test system: Gram-negative bacteria; test: as above; assay type: cell-based; details: 16% w/v sodium citrate, pH 6.4-7.5; concluded from MICs of FIGS. 2A and 2B
# Experimental: as §2, §3, §4
smiles,measurement,setting,value
"O=C([O-])CC(O)(CC(=O)[O-])C(=O)[O-].[Na+].[Na+].[Na+] [sodium citrate, trisodium citrate]",growth of C. albicans,[1]; 2% (w/v),does not grow
same,growth of C. albicans,[1]; 4% (w/v),does not grow
same,growth of C. albicans,[1]; 6% (w/v),does not grow
same,bacteria count of S. aureus,[2]; 6% (w/v),decrease
same,growth of S. aureus,[2]; 6% (w/v),does not grow
same,bacteria count of S. aureus,[2]; 8% (w/v),decrease
same,growth of S. aureus,[2]; 8% (w/v),does not grow
same,bacteria count of S. aureus,[2]; 10% (w/v),decrease
same,growth of S. aureus,[2]; 10% (w/v),does not grow
same,bacteria count of P. aeruginosa,[3]; 10% (w/v),decrease
same,growth of P. aeruginosa,[3]; 10% (w/v),does not grow
same,bacteria count of P. aeruginosa,[3]; 12% (w/v),decrease
same,growth of P. aeruginosa,[3]; 12% (w/v),does not grow
same,bacteria count of P. aeruginosa,[3]; 14% (w/v),decrease
same,growth of P. aeruginosa,[3]; 14% (w/v),does not grow
same,time required for clot formation (activated clotting time),[4],longer relative to the controls
same,growth and proliferation of Gram-positive bacteria,[5],will prevent growth and proliferation
same,growth and proliferation of yeast,[6],will prevent growth and proliferation
same,growth and proliferation of Gram-negative bacteria,[7],will prevent growth and proliferation
